Test results as given in patent US20230000813A1, “COMPOUND FOR THE TREATMENT OF BOVINE OR SWINE RESPIRATORY DISEASE” (Intervet Inc., priority 2016, published 2023).
Converted amounts (≈) assume the structure as drawn.

Key:
Experiment in all cases: MIC, broth-microdilution (CLSI VET01-A4)
Type in all cases: cell-based
[1] = system: Pasteurella multocida PM 10775 (080130003051, BRD field isolate); details: Pasteurella multocida PM 10775
In short: (§1)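 Broth microdilution per CLSI VET01-A4 using doubling dilution series of test compound; results interpreted per CLSI VET01-S3. MIC recorded as lowest concentration giving no turbidity visible to the unaided eye.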

[2] = system: Pasteurella multocida PM 6391 (ATCC 43137, reference strain); details: Pasteurella multocida PM 6391; for MIC: read-out: MIC PM 6391
In short: as §1

[3] = system: Mannheimia haemolytica MH 6357 (M7/2, reference strain, cattle infection strain); details: Mannheimia haemolytica MH 6357; read-out: MIC MH 6357
In short: as §1

[4] = system: Mannheimia haemolytica MH 6374 (ATCC 33396, reference strain); details: Mannheimia haemolytica MH 6374; read-out: MIC MH 6374
In short: as §1

[5] = system: Mannheimia haemolytica MH 10720 (154, BRD field isolate); details: Mannheimia haemolytica MH 10720; for MIC: read-out: MIC MH 10720
In short: as §1

[6] = system: Pasteurella multocida PM 12080 (IV102277-0093, BRD field isolate); details: Pasteurella multocida PM 12080; for MIC: read-out: MIC PM 12080
In short: as §1

[7] = system: Mannheimia haemolytica MH 12587 (1071, BRD field isolate, macrolide-resistance: erm+, E+); details: Mannheimia haemolytica MH 12587, macrolide-resistant
In short: as §1

[8] = system: Pasteurella multocida PM 6267 (P 2225 (L386), reference strain, mouse infection strain); details: Pasteurella multocida PM 6267; for MIC: read-out: MIC PM 6267
In short: as §1

[9] = system: Mannheimia haemolytica MH 13065 (XB0446-6003.9, BRD field isolate)
In short: (§2)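 Broth microdilution per CLSI VET01-A4 using doubling dilution series of compound. MIC taken as the lowest concentration with no turbidity visible to the unaided eye, interpreted per CLSI VET01-S3.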

[10] = system: Mannheimia haemolytica MH 13093 (XB0472-6014.1, BRD field isolate)
In short: as §2

Row | SMILES | MIC PM 10775 [1] | MIC PM 6391 [2] | MIC [3] [µM] | MIC [4] [µM] | MIC [5] [µM] | MIC [6] [µM] | MIC MH 12587 [7] [µM] | MIC [8] [µM] | MIC [9] [µM] | MIC [10] [µM] | MIC MH 10720 [5] | MIC PM 12080 [6] | MIC PM 6267 [8] | MIC [2] [µM]
1 | CC(C)(N)C(NC(=O)c1ccc(C#Cc2ccc(CNCc3ccccc3)cc2)cc1)C(=O)NO (racemic) [Compound 321] | <=0.1 μM | <=0.1 μM | 1.6 (≈ 0.753 µg/mL) | 0.8 (≈ 0.376 µg/mL) | 0.4 (≈ 0.188 µg/mL) | 0.2 (≈ 0.0941 µg/mL) | 1.6 (≈ 0.753 µg/mL) | 0.4 (≈ 0.188 µg/mL) | 0.8 (≈ 0.376 µg/mL) | 1.6 (≈ 0.753 µg/mL) |  |  |  | 
2 | CC(C)(C(NC(=O)c1ccc(C#Cc2ccc(CNCc3ccncc3)cc2)cc1)C(=O)NO)S(C)(=O)=O (stereo not drawn) [C. 607] | <=0.1 μM | <=0.1 μM | 0.4 (≈ 0.214 µg/mL) | 0.4 (≈ 0.214 µg/mL) |  |  | 0.8 (≈ 0.428 µg/mL) |  | 0.4 (≈ 0.214 µg/mL) | 0.4 (≈ 0.214 µg/mL) | <=0.1 μM | <=0.1 μM | <=0.1 μM | 
3 | C[C@@H](O)[C@H](NC(=O)c1ccc(C#Cc2ccc(CN(C)Cc3ccccc3)o2)cc1)C(=O)NO [Compound 205] | <=0.1 μM |  | 0.8 (≈ 0.369 µg/mL) | 0.8 (≈ 0.369 µg/mL) |  | 0.2 (≈ 0.0923 µg/mL) | 1.6 (≈ 0.738 µg/mL) |  | 0.8 (≈ 0.369 µg/mL) | 1.6 (≈ 0.738 µg/mL) | <=0.1 μM |  | <=0.1 μM | 0.4 (≈ 0.185 µg/mL)
4 | CC(C)(N)C(NC(=O)c1ccc(C#Cc2ccc(CNCc3cccnc3)cc2)cc1)C(=O)NO (racemic) [C. 364] | <=0.1 μM |  | 1.6 (≈ 0.754 µg/mL) | 1.6 (≈ 0.754 µg/mL) | 0.8 (≈ 0.377 µg/mL) |  | 1.6 (≈ 0.754 µg/mL) |  | 0.8 (≈ 0.377 µg/mL) | 1.6 (≈ 0.754 µg/mL) |  | <=0.1 μM | <=0.1 μM | 0.2 (≈ 0.0943 µg/mL)
5 | CC(C)C(NC(=O)c1ccc(C#Cc2ccc(CNCc3nccs3)cc2)cc1)C(=O)NO (stereo not drawn) [Compound 341] | <=0.1 μM | <=0.1 μM | 0.2 (≈ 0.0925 µg/mL) | 0.4 (≈ 0.185 µg/mL) |  |  | 0.4 (≈ 0.185 µg/mL) |  | 0.2 (≈ 0.0925 µg/mL) | 0.4 (≈ 0.185 µg/mL) | <=0.1 μM | <=0.1 μM | <=0.1 μM | 
6 | CC(C)(O)C(NC(=O)c1ccc(C#Cc2ccc(CNC3CC3)cc2)cc1)C(=O)NO (stereo not drawn) [Compound 565] | <=0.1 μM | <=0.1 μM | 1.6 (≈ 0.674 µg/mL) | 0.4 (≈ 0.169 µg/mL) |  |  | 1.6 (≈ 0.674 µg/mL) |  | 0.4 (≈ 0.169 µg/mL) | 0.8 (≈ 0.337 µg/mL) | <=0.1 μM | <=0.1 μM | <=0.1 μM | 
7 | CC(C)(N)C(NC(=O)c1ccc(C#Cc2ccc(CNCC(F)(F)F)s2)cc1)C(=O)NO (racemic) [Compound 648] | <=0.1 μM |  | 0.8 (≈ 0.375 µg/mL) | 0.4 (≈ 0.187 µg/mL) |  | 0.2 (≈ 0.0937 µg/mL) | 0.8 (≈ 0.375 µg/mL) |  | 0.4 (≈ 0.187 µg/mL) | 1.6 (≈ 0.75 µg/mL) | <=0.1 μM |  | <=0.1 μM | 0.4 (≈ 0.187 µg/mL)
8 | CC(C)([C@H](NC(=O)c1ccc(C#Cc2ccc(CN3CCOCC3)cc2)cc1)C(=O)NO)S(C)(=O)=O [Compound 604] | <=0.1 μM | <=0.1 μM | 1.6 (≈ 0.822 µg/mL) | 1.6 (≈ 0.822 µg/mL) | 0.2 (≈ 0.103 µg/mL) |  | 1.6 (≈ 0.822 µg/mL) |  | 0.8 (≈ 0.411 µg/mL) | 1.6 (≈ 0.822 µg/mL) |  | <=0.1 μM | <=0.1 μM | 
9 | CC(C)(O)[C@H](NC(=O)c1ccc(C#Cc2ccc(CNCc3ccncc3)cc2)cc1)C(=O)NO [Compound 651] | <=0.1 μM | <=0.1 μM | 0.4 (≈ 0.189 µg/mL) | 0.2 (≈ 0.0945 µg/mL) |  |  | 0.4 (≈ 0.189 µg/mL) |  | 0.2 (≈ 0.0945 µg/mL) | 0.4 (≈ 0.189 µg/mL) | <=0.1 μM | <=0.1 μM | <=0.1 μM | 
10 | CSC(C)(C)[C@H](NC(=O)c1ccc(C#Cc2ccc(CNCc3ccncc3)s2)cc1)C(=O)NO [Compound 740] | <=0.1 μM |  | 0.8 (≈ 0.407 µg/mL) | 0.8 (≈ 0.407 µg/mL) | 0.2 (≈ 0.102 µg/mL) |  | 1.6 (≈ 0.814 µg/mL) | 0.4 (≈ 0.203 µg/mL) | 0.8 (≈ 0.407 µg/mL) | 0.8 (≈ 0.407 µg/mL) |  | <=0.1 μM |  | 0.4 (≈ 0.203 µg/mL)
11 | CSC(C)(C)[C@H](NC(=O)c1ccc(C#Cc2ccc(CNCc3cccnc3)cc2)cc1)C(=O)NO [Compound 593] | <=0.1 μM |  | 0.4 (≈ 0.201 µg/mL) | 0.8 (≈ 0.402 µg/mL) | 0.2 (≈ 0.101 µg/mL) | 0.2 (≈ 0.101 µg/mL) | 0.8 (≈ 0.402 µg/mL) |  | 0.4 (≈ 0.201 µg/mL) | 0.8 (≈ 0.402 µg/mL) |  |  | <=0.1 μM | 0.8 (≈ 0.402 µg/mL)
12 | C[C@@H](O)[C@H](NC(=O)c1ccc(C#Cc2ccc(CN3CCc4ccccc4C3)o2)cc1)C(=O)NO [Compound 203] | <=0.1 μM |  | 0.8 (≈ 0.379 µg/mL) | 0.8 (≈ 0.379 µg/mL) |  | 0.2 (≈ 0.0947 µg/mL) | 1.6 (≈ 0.758 µg/mL) |  | 0.8 (≈ 0.379 µg/mL) | 0.8 (≈ 0.379 µg/mL) | <=0.1 μM |  | <=0.1 μM | 0.4 (≈ 0.189 µg/mL)
13 | CC(C)(C(NC(=O)c1ccc(C#Cc2ccc(CNCc3ccco3)cc2)cc1)C(=O)NO)S(C)(=O)=O (stereo not drawn) [C. 616] | <=0.1 μM | <=0.1 μM | 0.8 (≈ 0.419 µg/mL) | 0.2 (≈ 0.105 µg/mL) |  |  | 0.8 (≈ 0.419 µg/mL) |  | 0.2 (≈ 0.105 µg/mL) | 0.4 (≈ 0.209 µg/mL) | <=0.1 μM | <=0.1 μM | <=0.1 μM | 
14 | CC(C)([C@H](NC(=O)c1ccc(C#Cc2ccc(CNCC#N)cc2)cc1)C(=O)NO)S(C)(=O)=O [Compound 612] | <=0.1 μM | <=0.1 μM | 0.8 (≈ 0.386 µg/mL) | 0.4 (≈ 0.193 µg/mL) |  |  | 1.6 (≈ 0.772 µg/mL) |  | 0.8 (≈ 0.386 µg/mL) | 0.8 (≈ 0.386 µg/mL) | <=0.1 μM | <=0.1 μM | <=0.1 μM | 
15 | C[C@@H](O)[C@H](NC(=O)c1ccc(C#Cc2ccc(CNCc3ccco3)cc2)cc1)C(=O)NO [C. 259] | <=0.1 μM | <=0.1 μM | 0.2 (≈ 0.0895 µg/mL) | 0.2 (≈ 0.0895 µg/mL) |  |  | 0.4 (≈ 0.179 µg/mL) |  | 0.4 (≈ 0.179 µg/mL) | 0.4 (≈ 0.179 µg/mL) | <=0.1 μM | <=0.1 μM | <=0.1 μM | 
